In patent US20080219975A1, “VEGFR3 INHIBITORS” (priority 2006, published 2008):
Blank lines part the entries; values can stand above or below the compound they belong to.

Legend:
VEGFR3 [1] = target: T1, VEGFR3 (Homo sapiens, UniProt P35916); assay: Inhibition of VEGF-C induced VEGFR-3 phosphorylation in PAE cells stably expressing human VEGFR-3; format: cell-based; design: expressed in transfected cells; host or cells: porcine aortic endothelial (PAE) cells; conditions: PAE cells expressing human VEGFR-3, 100 ng/ml VEGF-C, Western blot (FIG. 1)
T1 sequence (P35916 25-1363): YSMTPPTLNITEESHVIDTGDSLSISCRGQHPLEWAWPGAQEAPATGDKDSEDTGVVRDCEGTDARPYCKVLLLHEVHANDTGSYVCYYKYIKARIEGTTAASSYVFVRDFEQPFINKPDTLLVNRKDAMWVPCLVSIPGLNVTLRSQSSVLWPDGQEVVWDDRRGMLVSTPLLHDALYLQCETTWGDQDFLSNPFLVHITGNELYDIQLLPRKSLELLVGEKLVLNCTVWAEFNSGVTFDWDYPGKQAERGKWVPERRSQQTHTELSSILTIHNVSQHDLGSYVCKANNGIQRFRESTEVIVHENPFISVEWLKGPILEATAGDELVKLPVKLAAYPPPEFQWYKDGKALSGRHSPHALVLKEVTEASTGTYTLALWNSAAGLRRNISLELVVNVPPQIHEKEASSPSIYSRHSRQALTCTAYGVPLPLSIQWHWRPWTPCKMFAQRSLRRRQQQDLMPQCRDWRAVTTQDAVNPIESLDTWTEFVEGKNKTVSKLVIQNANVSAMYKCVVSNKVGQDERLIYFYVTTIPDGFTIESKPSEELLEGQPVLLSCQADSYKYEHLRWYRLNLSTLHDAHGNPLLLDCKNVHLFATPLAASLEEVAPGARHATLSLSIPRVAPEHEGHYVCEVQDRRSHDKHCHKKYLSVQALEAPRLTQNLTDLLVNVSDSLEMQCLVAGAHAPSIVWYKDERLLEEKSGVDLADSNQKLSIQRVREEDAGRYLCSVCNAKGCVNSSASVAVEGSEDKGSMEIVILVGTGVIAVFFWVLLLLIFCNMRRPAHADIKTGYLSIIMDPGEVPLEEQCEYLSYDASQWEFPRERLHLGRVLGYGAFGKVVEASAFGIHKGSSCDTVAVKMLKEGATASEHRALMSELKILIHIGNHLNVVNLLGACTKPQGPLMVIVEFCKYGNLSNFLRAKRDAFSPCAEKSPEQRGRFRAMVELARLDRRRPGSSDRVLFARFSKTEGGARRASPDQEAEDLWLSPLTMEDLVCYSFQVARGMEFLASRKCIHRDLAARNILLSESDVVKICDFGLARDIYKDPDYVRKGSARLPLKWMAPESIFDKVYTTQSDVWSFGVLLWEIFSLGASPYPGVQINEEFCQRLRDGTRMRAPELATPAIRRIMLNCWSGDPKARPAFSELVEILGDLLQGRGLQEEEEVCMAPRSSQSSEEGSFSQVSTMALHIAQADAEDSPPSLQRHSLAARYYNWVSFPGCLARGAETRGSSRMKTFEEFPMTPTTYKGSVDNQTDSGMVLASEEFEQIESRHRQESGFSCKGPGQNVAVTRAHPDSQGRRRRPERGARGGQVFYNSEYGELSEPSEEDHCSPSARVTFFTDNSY
Experimental: For this assay, porcine aortic endothelial (PAE) cells stably expressing human VEGFR-3 were grown to confluency on 10 cm dishes. The cells were serum starved overnight and the media replaced with fresh serum-free media. […] This was followed by the addition of VEGF-C to a final concentration of 100 ng/ml and the cells incubated for 10 min at 37° C., after which they were washed with ice-cold PBS and then lysed. Cell lysates containing protease inhibitors were subjected to immunoprecipitation with an antibody specific for VEGFR-3 and the immunoprecipitates separated by SDS-PAGE. Proteins were transferred to a nitrocellulose membrane, and then probed first with a phospho-tyrosine antibody and then a VEGFR-3 antibody.

[2] = system: VEGFR1 mediated VEGF signaling; assay: VEGF stimulation of Erk1/2 in HMVEC-d cells; format: cell-based, human; conditions: 5 μM, 10 ng/ml VEGF (FIG. 2)
Experimental: (§1) HMVEC-d cells (Cambrex) were cultured at 37 C in 5% CO2 in appropriate serum containing medium (Cambrex) on fibronectin coated 12-well plates (BD Biocoat, Becton Dickinson) for 4 days. Cells were then starved for 16 hours in the same medium as before, but lacking serum and containing SITE+3 (Invitrogen) instead. Cells were then preincubated with DMSO at 0.2% (the solvent) or 5 uM Compound 2 for 60 minutes and then either 10 ng/ml VEGF or 100 ng/ml VEGF-C (R&D systems) was added to the cells. Before, or 10 and 30 minutes after stimulation, the medium was removed, cells were rinsed with ice-cold PBS containing 0.1 mM sodiumorthovanadate and lysed in M-PER buffer (PIERCE) containing 0.1% SDS, and 1× phosphatase and protease inhibitors (HALT, PIERCE). Cells were scraped off the plates and incubated in lysis buffer for 30 minutes on ice and then centrifuged at 4° C. for 10 min at 16000×g. Lysates were quantified using the BCA reagent according to the manufacturer's instructions (PIERCE), and […] of total protein was loaded on SDS-polyacrylamide gels (NUPAGE, Invitrogen). Electrophoresis and blotting onto PVDF membranes was all performed using reagents from the NUPAGE system, according to the manufacturer's instructions. […]

VEGFR3 [3] = target: T1, VEGFR3; assay: VEGFR3 in vitro kinase assay; format: biochemical; conditions: 10 μM ATP
Experimental: The VEGFR3 kinase reaction was performed at 30° C. for 10 minutes in a 96-well microtiterplate. The 25 μl reaction volume contained 8 mM MOPS pH 7, 200 μM EDTA, 10 mM MgAc, 10 μM unlabeled ATP, […] AT33P, 500 μM JAK3-tide (Ac-GGEEEEYFELVKKKK-NH2), 25 ng VEGFR3 and 2% compound in 100% DMSO.
The reaction was stopped by adding 5 μl of a 3% phosphoric acid solution. 10 μl of the reaction mixture was then spotted onto a Filtermat P30 filter (Wallac) and washed 3 times for 5 min. in 0.75% phosphoric acid and 1 time for 2 min. in methanol prior to transferring to a sealable plastic bag containing 4 ml of scintillation liquid and reading in a scintillation counter.

[4] = system: VEGFR3 dependent VEGF-C stimulation of Erk1/2; assay: Inhibition of Erk activation induced by VEGF-C in HMVEC-d cells; format: cell-based, human; conditions: 5 μM, 100 ng/ml VEGF-C (FIG. 2)
Experimental: as §1

Xenopus tadpoles = assay: VEGFR3 in vivo Xenopus assay (lymphangiogenesis, LEC migration); conditions: for % Relative Area 2-3: LECs in area 2-3 relative to vehicle control; for % Relative Max Migration: furthest LEC migration from PCV relative to vehicle control; for % embryos with reduced migration: stages 35-36 tadpoles
Experimental: Xenopus tadpoles were used as a model (Ny et al Nature Medicine 11: 998-1004 (2005)) to analyze the effects of Compound 2 on lymphangiogenesis. The compound was administered daily in a dose dependent manner, with vehicle controls, to the medium of the Xenopus tadpoles starting at stage 26-28, i.e., before the formation of both blood and lymphatic vessels. The effects of the compound was monitored by “live analysis”, i.e. live embryos were examined 4 days later for evidence of lymph-vascular defects by trained observers. As an additional means of confirming the results, in a limited number of experiments, tadpoles were fixed at stage 35-36 and in situ hybridizations for Prox1 were performed to assess migration of lymphatic endothelial cells (LECs) from the posterior cardinal vein (PCV) to their dorsal endpoint, this reflecting an essential step in lymphangiogenesis. Under normal circumstances, LECs arise from the region of the PCV, accumulate there, and during the study period, they migrate dorsally to defined “areas” (Area 1 to Area 2 and Area 3), where they then further migrate rostrally and caudally to form the lymphatic vasculature in the tail and trunk. Defects in migration of the LECs from the PCV was quantified by determining the maximal migration of the cells, and by counting the number of cells in these different regions in the tail.

melting point: 255.5 to 260.2 °C
SMILES: COc1cc2ncnc3c2cc1OCCCCCCOc1c(Cl)cccc1N3 [4,6-ethanediylidene-19H-pyrimido[4,5-b][6,13,1]benzodioxaazacyclo-pentadecine, 15-chloro-8,9,10,11,12,13-hexahydro-20-methoxy-]

VEGF-C induced VEGFR-3 phosphorylation (VEGFR3 [1]): dose dependent reduction
IC50 (VEGFR3 [3]): 18.2 nM
tadpoles with hemorrhages (Xenopus tadpoles; concentrations >50 uM, live screening): 30%
SMILES: COc1cc2ncnc3c2cc1OCCCCCN(C)Cc1ccc(Br)cc1N3 [Compound 2, 4,6-ethanediylidenepyrimido[4,5-b][6,1,12]benzoxadiazacyclo-pentadecine, 17-bromo-8,9,10,11,12,13,14,19-octahydro-20-methoxy-13-methyl-]
VEGF stimulation of Erk1/2 [2]: did not interfere
phosphorylation of Erk1/2 by VEGF-C [4]: prevented
% Relative Area 2-3 (Xenopus tadpoles; 0.3125 μM): 37 ± 20%
% Relative Max Migration (Xenopus tadpoles; 0.3125 μM): 73 ± 22%
% embryos with reduced migration (Xenopus tadpoles; 0.3125 μM): 57%
% Relative Area 2-3 (Xenopus tadpoles; 1.25 μM): 20 ± 8%
% Relative Max Migration (Xenopus tadpoles; 1.25 μM): 47 ± 5%
% embryos with reduced migration (Xenopus tadpoles; 1.25 μM): 63%
% Relative Area 2-3 (Xenopus tadpoles; 5 μM): 123 ± 32%
% Relative Max Migration (Xenopus tadpoles; 5 μM): 121 ± 3%
% embryos with reduced migration (Xenopus tadpoles; 5 μM): 40%
% Relative Area 2-3 (Xenopus tadpoles; 20 μM): 19 ± 8%
% Relative Max Migration (Xenopus tadpoles; 20 μM): 35 ± 1%
tadpoles that developed edema (Xenopus tadpoles; 20 uM, live screening): 10%
% embryos with reduced migration (Xenopus tadpoles; 20 μM): 60%
% Relative Area 2-3 (Xenopus tadpoles; 80 μM): 56 ± 15%
% Relative Max Migration (Xenopus tadpoles; 80 μM): 67 ± 21%
% embryos with reduced migration (Xenopus tadpoles; 80 μM): 80%
effects in Xenopus tadpole model (Xenopus tadpoles; in vivo): phenocopy the effects of VEGF-C knockout
Lymphatic Endothelial Cell (LEC) migration in tadpoles (Xenopus tadpoles; stage 35-36 tadpoles): dose dependently inhibits
